Literature values, collected in US20050136438A1, “Genetic analysis for stratification of cancer risk” (priority 2003, published 2005).
Counter-ions that a name gives are not always drawn.

solubility in water: very slightly soluble
Compound: O=C(c1ccc(OCCN2CCCCC2)cc1)c1c(-c2ccc(O)cc2)sc2cc(O)ccc12 [Raloxifene HCl, methanone, [6-hydroxy-2-(4-hydroxyphenyl)benzo[b]thien-3-yl]-[4-[2-(1-piperidinyl)ethoxy]phenyl]-hydrochloride]
